Data: PMC4984525 (Cancer, 2011)

Legend:
HT-29 = HT-29 subcutaneous xenograft, mouse; cited from earlier work
multiple myeloma = conditions: cited from earlier work
A2780 = A2780 subcutaneous xenograft, mouse; cited from earlier work
[1] = system: patients with advanced or refractory myeloid leukemias; assay: Phase 1 dose-escalation: safety, DLT and MTD; assay type: in vivo
[2] = Plasma pharmacokinetics of ARRY-520; assay type: in vivo, human; conditions: for coefficient of variation (CV) for CL: inter-patient variability; for AUC(0-t) / clearance / Cmax / MRT / Tmax / Vd / half-life: human, plasma, intravenous; for MRT / Tmax / half-life: median (min-max); for Vd: mean (%CV)

Which results are given for `CON(C)C(=O)N1N=C(c2cc(F)ccc2F)S[C@@]1(CCCN)c1ccccc1` [ARRY-520]?
anti-cancer efficacy (HT-29): demonstrated anti-cancer efficacy; activity in xenograft models of multiple myeloma (multiple myeloma): has shown activity; anti-cancer efficacy (A2780): demonstrated anti-cancer efficacy; MTD, total dose ([1]; Schedule 2 (Days 1, 3 and 5)): 4.5 mg/m^2; died within 30 days following discontinuation of ARRY-520, % ([1]; all patients): 17%; died within 30 days following discontinuation of ARRY-520, patients n ([1]; all patients): 6; Grades 3 or 4 reversible drug-related myelosuppression, patients ([1]; human, in vivo): 33/36; adverse events leading to discontinuation, % of patients ([1]; human, in vivo): 8%; adverse events leading to discontinuation, patients n ([1]; human, in vivo): 3; asymptomatic Grade 1 QTc prolongation, % of patients ([1]; human, in vivo): 22%; asymptomatic Grade 1 QTc prolongation, patients n ([1]; human, in vivo): 8; asymptomatic Grade 2 QTc prolongation, % of patients ([1]; human, in vivo): 3%; asymptomatic Grade 2 QTc prolongation, patients n ([1]; human, in vivo): 1; drug-related SAE bacteremia, % ([1]; human, in vivo): 3%; drug-related SAE diarrhea, % ([1]; human, in vivo): 3%; drug-related SAE exfoliative rash, % ([1]; human, in vivo): 3%; drug-related SAE hyperbilirubinemia, % ([1]; human, in vivo): 3%; drug-related SAE neutropenic fever, % ([1]; human, in vivo): 8%; drug-related SAE palmar-plantar erythrodysesthesia, % ([1]; human, in vivo): 6%; drug-related SAE pancytopenia, % ([1]; human, in vivo): 3%; drug-related SAE stomatitis, % ([1]; human, in vivo): 3%; patients with one or more SAEs related to study drug, % ([1]; human, in vivo): 28%; Dose-limiting toxicities (DLT) ([1]; in vivo): mucositis, exfoliative rash, hand-foot syndrome and hyperbilirubinemia; Neurotoxicity ([1]; in vivo): not observed; other clinically significant ECG changes ([1]; in vivo): No other clinically significant ECG changes were observed; coefficient of variation (CV) for CL ([2]; Schedule 1, Cycle 1): 50.7%; coefficient of variation (CV) for CL ([2]; Schedule 1, Cycle 2): 77.1%; time plasma concentrations maintained above 2 ng/mL ([2]; Schedule 1, following a single infusion, postinitiation of infusion, all cohorts): greater than 7 days; time geometric mean plasma concentrations maintained above 2 ng/mL ([2]; Schedule 2, all cohorts): more than 14 days; overall ratio of AUC0–24 on Day 5 compared to Day 1 ([2]; Schedule 2, dosing at 48-hour intervals): 2.23; AUC(0-t) ([2]; 0.8 mg/m^2, AUC0–24, Schedule 2, Cycle 1 Day 1, 0.8 mg/m^2 (N=3), geometric mean (geometric %CV)): 116 ng·h/mL; AUC(0-t) ([2]; 0.8 mg/m^2, AUC0–24, Schedule 2, Cycle 1 Day 5, 0.8 mg/m^2 (N=3), geometric mean (geometric %CV)): 179 ng·h/mL; clearance ([2]; 0.8 mg/m^2, CL, Schedule 2, Cycle 1 Day 1, 0.8 mg/m^2 (N=3), geometric mean (geometric %CV)): 109 mL/min; clearance ([2]; 0.8 mg/m^2, CL, Schedule 2, Cycle 1 Day 5, 0.8 mg/m^2 (N=3), geometric mean (geometric %CV)): 33.8 mL/min; Cmax ([2]; 0.8 mg/m^2, Cmax, Schedule 2, Cycle 1 Day 1, 0.8 mg/m^2 (N=3), geometric mean (geometric %CV)): 19.5 ng/mL; Cmax ([2]; 0.8 mg/m^2, Cmax, Schedule 2, Cycle 1 Day 5, 0.8 mg/m^2 (N=3), geometric mean (geometric %CV)): 25.3 ng/mL; MRT ([2]; 0.8 mg/m^2, MRT, Schedule 2, Cycle 1 Day 5, 0.8 mg/m^2 (N=3)): 130 h; Tmax ([2]; 0.8 mg/m^2, Tmax, Schedule 2, Cycle 1 Day 1, 0.8 mg/m^2 (N=3)): 1 h; Tmax ([2]; 0.8 mg/m^2, Tmax, Schedule 2, Cycle 1 Day 5, 0.8 mg/m^2 (N=3)): 1.08 h; Vd ([2]; 0.8 mg/m^2, Vss, Schedule 2, Cycle 1 Day 1, 0.8 mg/m^2 (N=3)): 295 L; Vd ([2]; 0.8 mg/m^2, Vss, Schedule 2, Cycle 1 Day 5, 0.8 mg/m^2 (N=3)): 193 L; half-life ([2]; 0.8 mg/m^2, t1/2, Schedule 2, Cycle 1 Day 1, 0.8 mg/m^2 (N=3)): 29.8 h; half-life ([2]; 0.8 mg/m^2, t1/2, Schedule 2, Cycle 1 Day 5, 0.8 mg/m^2 (N=3)): 92.5 h; AUC(0-t) ([2]; 1.2 mg/m^2, AUC0–24, Schedule 2, Cycle 1 Day 1, 1.2 mg/m^2 (N=6), geometric mean (geometric %CV)): 133 ng·h/mL; AUC(0-t) ([2]; 1.2 mg/m^2, AUC0–24, Schedule 2, Cycle 1 Day 5, 1.2 mg/m^2 (N=6), geometric mean (geometric %CV)): 320 ng·h/mL; clearance ([2]; 1.2 mg/m^2, CL, Schedule 2, Cycle 1 Day 1, 1.2 mg/m^2 (N=6), geometric mean (geometric %CV)): 130 mL/min; clearance ([2]; 1.2 mg/m^2, CL, Schedule 2, Cycle 1 Day 5, 1.2 mg/m^2 (N=6), geometric mean (geometric %CV)): 15.8 mL/min; Cmax ([2]; 1.2 mg/m^2, Cmax, Schedule 2, Cycle 1 Day 1, 1.2 mg/m^2 (N=6), geometric mean (geometric %CV)): 18.8 ng/mL; Cmax ([2]; 1.2 mg/m^2, Cmax, Schedule 2, Cycle 1 Day 5, 1.2 mg/m^2 (N=6), geometric mean (geometric %CV)): 24.3 ng/mL; MRT ([2]; 1.2 mg/m^2, MRT, Schedule 2, Cycle 1 Day 5, 1.2 mg/m^2 (N=6)): 134 h; Tmax ([2]; 1.2 mg/m^2, Tmax, Schedule 2, Cycle 1 Day 1, 1.2 mg/m^2 (N=6)): 1.09 h; Tmax ([2]; 1.2 mg/m^2, Tmax, Schedule 2, Cycle 1 Day 5, 1.2 mg/m^2 (N=6)): 1 h; Vd ([2]; 1.2 mg/m^2, Vss, Schedule 2, Cycle 1 Day 1, 1.2 mg/m^2 (N=6)): 363 L; Vd ([2]; 1.2 mg/m^2, Vss, Schedule 2, Cycle 1 Day 5, 1.2 mg/m^2 (N=6)): 239 L; half-life ([2]; 1.2 mg/m^2, t1/2, Schedule 2, Cycle 1 Day 1, 1.2 mg/m^2 (N=6)): 25.6 h; half-life ([2]; 1.2 mg/m^2, t1/2, Schedule 2, Cycle 1 Day 5, 1.2 mg/m^2 (N=6)): 94.9 h; AUC(0-t) ([2]; 1.5 mg/m^2, AUC0–24, Schedule 2, Cycle 1 Day 1, 1.5 mg/m^2 (N=6), geometric mean (geometric %CV)): 264 ng·h/mL; AUC(0-t) ([2]; 1.5 mg/m^2, AUC0–24, Schedule 2, Cycle 1 Day 5, 1.5 mg/m^2 (N=6), geometric mean (geometric %CV)): 667 ng·h/mL; clearance ([2]; 1.5 mg/m^2, CL, Schedule 2, Cycle 1 Day 1, 1.5 mg/m^2 (N=6), geometric mean (geometric %CV)): 98.3 mL/min; clearance ([2]; 1.5 mg/m^2, CL, Schedule 2, Cycle 1 Day 5, 1.5 mg/m^2 (N=6), geometric mean (geometric %CV)): 18.5 mL/min; Cmax ([2]; 1.5 mg/m^2, Cmax, Schedule 2, Cycle 1 Day 1, 1.5 mg/m^2 (N=6), geometric mean (geometric %CV)): 57.9 ng/mL; Cmax ([2]; 1.5 mg/m^2, Cmax, Schedule 2, Cycle 1 Day 5, 1.5 mg/m^2 (N=6), geometric mean (geometric %CV)): 134 ng/mL; MRT ([2]; 1.5 mg/m^2, MRT, Schedule 2, Cycle 1 Day 5, 1.5 mg/m^2 (N=6)): 119 h; Tmax ([2]; 1.5 mg/m^2, Tmax, Schedule 2, Cycle 1 Day 1, 1.5 mg/m^2 (N=6)): 1 h; Tmax ([2]; 1.5 mg/m^2, Tmax, Schedule 2, Cycle 1 Day 5, 1.5 mg/m^2 (N=6)): 1.02 h; Vd ([2]; 1.5 mg/m^2, Vss, Schedule 2, Cycle 1 Day 1, 1.5 mg/m^2 (N=6)): 251 L; Vd ([2]; 1.5 mg/m^2, Vss, Schedule 2, Cycle 1 Day 5, 1.5 mg/m^2 (N=6)): 169 L; half-life ([2]; 1.5 mg/m^2, t1/2, Schedule 2, Cycle 1 Day 1, 1.5 mg/m^2 (N=6)): 26.1 h; half-life ([2]; 1.5 mg/m^2, t1/2, Schedule 2, Cycle 1 Day 5, 1.5 mg/m^2 (N=6)): 82.2 h; AUC(0-t) ([2]; 1.8 mg/m^2, AUC0–24, Schedule 2, Cycle 1 Day 1, 1.8 mg/m^2 (N=2), geometric mean): 208 ng·h/mL; AUC(0-t) ([2]; 1.8 mg/m^2, AUC0–24, Schedule 2, Cycle 1 Day 5, 1.8 mg/m^2 (N=2), geometric mean): 608 ng·h/mL; clearance ([2]; 1.8 mg/m^2, CL, Schedule 2, Cycle 1 Day 1, 1.8 mg/m^2 (N=2), geometric mean): 130 mL/min; clearance ([2]; 1.8 mg/m^2, CL, Schedule 2, Cycle 1 Day 5, 1.8 mg/m^2 (N=2), geometric mean): 18.3 mL/min; Cmax ([2]; 1.8 mg/m^2, Cmax, Schedule 2, Cycle 1 Day 1, 1.8 mg/m^2 (N=2), geometric mean): 24.4 ng/mL
